Assay results reported in patent publication US4100346A, “Certain 7(o-amino-methyl- or methylaminomethylphenyl- or cyclohexadienyl- or thienylacetamide)-3[1-carboxymethyl-(or ethyl- or propyl-)-tetrazol-5-ylthiomethyl]-3-cephem-4-carboxylic acids” (Bristol-Myers Company, priority 1976, dated 1978).
In brackets after ≈: the same amount, converted by molar mass. Like-named read-outs stand apart in the source and are kept apart here.

Experiments:
Escherichia coli [1] = test: Effect of inoculum size on susceptibility of Enterobacteriaceae
Enterobacter cloacae [2] = test: as above
Edwardsiella tarda = test: Growth inhibitory activity, antibiotic dilution technique; conditions: read-out: Minimum inhibitory concentration
[3] = Recovery in urine after intramuscular injection; conditions: rat, im, 10 mg/kg
Arizona hinshawii = test: Growth inhibitory activity, antibiotic dilution technique; conditions: Salmonella enterica, read-out: Minimum inhibitory concentration
Enterobacter cloacae [4] = test: Intramuscular treatment of systemically infected mice; type: in vivo; conditions: mice, intramuscular; compared with control cephalosporins
Description: Treatment of Systemically Infected Mice. The procedures were identical with those published previously [Leitner et al., BL-S640, a Cephalosporin With a Broad Spectrum of Antibacterial Activity: Bioavailability and Therapeutic Properties in Rodents, Antimicrob. Agents Chemother.
(a) the hog gastric mucin used in infections with Staphylococcus aureus No. 2 was purchased from American Laboratories, Inc., Omaha, Neb.

Citrobacter sp. = test: Growth inhibitory activity, antibiotic dilution technique
Bacteroides Fragilis = test: Growth inhibitory activity, antibiotic dilution technique (obligate anaerobes); type: cell-based; conditions: 3 strains, geometric mean when applicable, read-out: Minimum inhibitory concentration
Protocol: Antibiotic spectrum. […] Procedures were as follows:
c. Obligate anaerobes. The assay was performed on solid medium, consisting of Brain Heart Infusion Broth (BBL) supplemented with 5% defibrinated sheep blood and 1% Ionagar (Colab). […] The plates were incubated at 37° C. for 48 hours under the oxygen-free conditions attained with a Gas-Pak (BBL) Brewer jar system.

Staphylococcus Aureus = test: Effect of inoculum size on susceptibility of Staphylococcus aureus; type: cell-based; conditions: for MICB /MICA: MIC at 10^6 over MIC at 10^2 organisms; for MIC: Staphylococcus aureus, read-out: Minimum inhibitory concentration
Klebsiella pneumoniae [5] = test: Effect of inoculum size on susceptibility of Enterobacteriaceae
Erwinia sp. = test: Growth inhibitory activity, antibiotic dilution technique; conditions: read-out: Minimum inhibitory concentration
[6] = target: staphylococcal β-lactamase, Staphylococcus aureus A9606 (Staphylococcus aureus, UniProt P00807); test: Hydrolysis by β-lactamase in cell-free extracts; type: biochemical; conditions: cell-free extract
Protocol: (§1) Miscellaneous. Methods for determining bactericidal activity and susceptibility to cell-free β-lactamase were those previously used; Leitner et al., BL-S640, A Cephalosporin With a Broad Spectrum of Antibacterial Activity: Properties in vitro, Antimicrob. Agents Chemother. 7:298-305 (1975).
Susceptibility to β-lactamase. Susceptibility to enzymic hydrolysis was assessed by determining relative rates of hydrolysis by cell-free preparations of various β-lactamases (Table 6). BL-S786 was slightly to markedly less susceptible than the other cephalosporins to hydrolysis by β-lactamases of Type Ia, Ib, IIIa and IVa. All cephalosporins were poor substrates for Type IIa and staphylococcal β-lactamases. The four cephalosporins were hydrolyzed at similar rates by the Type IVb enzyme.

Serratia marcescens = test: Growth inhibitory activity, antibiotic dilution technique; conditions: read-out: Minimum inhibitory concentration
Escherichia coli [7] = test: Minimum growth inhibitory and bactericidal concentrations for Enterobacteriaceae; type: cell-based; conditions: for MBC: read-out: MBC, minimum bactericidal concentration; for MIC: read-out: MIC, Minimum growth inhibitory concentration
Description: as §1
(§2) *MIC, Minimum growth inhibitory concentration; MBC, minimum bactericidal
(§3) concentration; expressed as micrograms per milliliter. The inoculum was […]

Klebsiella pneumoniae [8] = test: as above; type: cell-based; conditions: for MBC: read-out: MBC, minimum bactericidal concentration; for MIC: read-out: MIC, Minimum growth inhibitory concentration
Description: as §1, §2, §3

Enterobacter cloacae [9] = test: as above; type: cell-based; conditions: for MBC: read-out: MBC, minimum bactericidal concentration; for MIC: read-out: MIC, Minimum growth inhibitory concentration
Description: as §1, §2, §3

[10] = Escherichia coli strain 1, inoculum 10^4 cells
[11] = Escherichia coli strain 2, inoculum 10^4 cells
[12] = Escherichia coli strain 3, inoculum 10^4 cells
[13] = Escherichia coli strain 4, inoculum 10^4 cells
[14] = Escherichia coli strain 5, inoculum 10^4 cells
[15] = Escherichia coli strain 6, inoculum 10^4 cells
[16] = Klebsiella pneumoniae strain 1, inoculum 10^4 cells
[17] = Klebsiella pneumoniae strain 2, inoculum 10^4 cells
[18] = Klebsiella pneumoniae strain 3, inoculum 10^4 cells
[19] = Klebsiella pneumoniae strain 4, inoculum 10^4 cells
[20] = Klebsiella pneumoniae strain 5, inoculum 10^4 cells
[21] = Klebsiella pneumoniae strain 6, inoculum 10^4 cells
[22] = Enterobacter cloacae strain 3, inoculum 10^4 cells
[23] = Enterobacter cloacae strain 4, inoculum 10^4 cells
[24] = Enterobacter cloacae strain 8, inoculum 10^4 cells

Chain of staphylococcal β-lactamase, Staphylococcus aureus A9606 (P00807 25-281): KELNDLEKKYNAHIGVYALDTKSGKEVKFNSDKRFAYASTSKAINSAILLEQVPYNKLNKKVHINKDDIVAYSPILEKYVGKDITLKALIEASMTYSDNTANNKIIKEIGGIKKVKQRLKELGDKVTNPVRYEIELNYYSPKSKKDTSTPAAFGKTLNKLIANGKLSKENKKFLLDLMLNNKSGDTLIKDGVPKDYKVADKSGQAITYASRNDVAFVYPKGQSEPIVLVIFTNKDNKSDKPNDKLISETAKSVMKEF

NCc1ccccc1CC(=O)N[C@@H]1C(=O)N2C(C(=O)O)=C(CSc3nnnn3CC(=O)O)CS[C@H]12 [Example 1]
MIC (Escherichia coli [1]; read-out: Minimum Inhibitory Concentration, Escherichia coli strain 1, A, Inoculum of 10^2 organisms): 0.5 mg/L (≈ 0.962 µM)
MIC (Escherichia coli [1]; read-out: Minimum Inhibitory Concentration, Escherichia coli strain 1, B, Inoculum of 10^6 organisms): 2 mg/L (≈ 3.85 µM)
MIC (Escherichia coli [1]; read-out: Minimum Inhibitory Concentration, Escherichia coli strain 2, A, Inoculum of 10^2 organisms): 4 mg/L (≈ 7.7 µM)
MIC (Escherichia coli [1]; read-out: Minimum Inhibitory Concentration, Escherichia coli strain 2, B, Inoculum of 10^6 organisms): 32 mg/L (≈ 61.6 µM)
MIC (Escherichia coli [1]; read-out: Minimum Inhibitory Concentration, Escherichia coli strain 3, A, Inoculum of 10^2 organisms): 0.25 mg/L (≈ 0.481 µM)
MIC (Escherichia coli [1]; read-out: Minimum Inhibitory Concentration, Escherichia coli strain 3, B, Inoculum of 10^6 organisms): 1 mg/L (≈ 1.92 µM)
MIC (Escherichia coli [1]; read-out: Minimum Inhibitory Concentration, Escherichia coli strain 4, A, Inoculum of 10^2 organisms): 0.5 mg/L (≈ 0.962 µM)
MIC (Escherichia coli [1]; read-out: Minimum Inhibitory Concentration, Escherichia coli strain 4, B, Inoculum of 10^6 organisms): 2 mg/L (≈ 3.85 µM)
MIC (Escherichia coli [1]; read-out: Minimum Inhibitory Concentration, Escherichia coli strain 5, A, Inoculum of 10^2 organisms): 1 mg/L (≈ 1.92 µM)
MIC (Escherichia coli [1]; read-out: Minimum Inhibitory Concentration, Escherichia coli strain 5, B, Inoculum of 10^6 organisms): 2 mg/L (≈ 3.85 µM)
MIC (Escherichia coli [1]; read-out: Minimum Inhibitory Concentration, Escherichia coli strain 6, A, Inoculum of 10^2 organisms): 0.5 mg/L (≈ 0.962 µM)
MIC (Escherichia coli [1]; read-out: Minimum Inhibitory Concentration, Escherichia coli strain 6, B, Inoculum of 10^6 organisms): 2 mg/L (≈ 3.85 µM)
MIC (Escherichia coli [1]; read-out: Minimum Inhibitory Concentration, Escherichia coli strain 7, A, Inoculum of 10^2 organisms): 0.25 mg/L (≈ 0.481 µM)
MIC (Escherichia coli [1]; read-out: Minimum Inhibitory Concentration, Escherichia coli strain 7, B, Inoculum of 10^6 organisms): 2 mg/L (≈ 3.85 µM)
MIC (Enterobacter cloacae [2]; read-out: Minimum Inhibitory Concentration, Enterobacter cloacae strain 1, A, Inoculum of 10^2 organisms): 1 mg/L (≈ 1.92 µM)
MIC (Enterobacter cloacae [2]; read-out: Minimum Inhibitory Concentration, Enterobacter cloacae strain 1, B, Inoculum of 10^6 organisms): > 250 mg/L
MIC (Enterobacter cloacae [2]; read-out: Minimum Inhibitory Concentration, Enterobacter cloacae strain 2, A, Inoculum of 10^2 organisms): 1 mg/L (≈ 1.92 µM)
MIC (Enterobacter cloacae [2]; read-out: Minimum Inhibitory Concentration, Enterobacter cloacae strain 2, B, Inoculum of 10^6 organisms): > 250 mg/L
MIC (Enterobacter cloacae [2]; read-out: Minimum Inhibitory Concentration, Enterobacter cloacae strain 3, A, Inoculum of 10^2 organisms): 2 mg/L (≈ 3.85 µM)
MIC (Enterobacter cloacae [2]; read-out: Minimum Inhibitory Concentration, Enterobacter cloacae strain 3, B, Inoculum of 10^6 organisms): > 250 mg/L
MIC (Enterobacter cloacae [2]; read-out: Minimum Inhibitory Concentration, Enterobacter cloacae strain 4, A, Inoculum of 10^2 organisms): 2 mg/L (≈ 3.85 µM)
MIC (Enterobacter cloacae [2]; read-out: Minimum Inhibitory Concentration, Enterobacter cloacae strain 4, B, Inoculum of 10^6 organisms): > 250 mg/L
MIC (Enterobacter cloacae [2]; read-out: Minimum Inhibitory Concentration, Enterobacter cloacae strain 5, A, Inoculum of 10^2 organisms): 8 mg/L (≈ 15.4 µM)
MIC (Enterobacter cloacae [2]; read-out: Minimum Inhibitory Concentration, Enterobacter cloacae strain 5, B, Inoculum of 10^6 organisms): 250 mg/L (≈ 481 µM)
MIC (Edwardsiella tarda): 0.13 mg/L (≈ 0.25 µM)
dose excreted at 24 h [3]: 65%
MIC (Arizona hinshawii): 0.13 mg/L (≈ 0.25 µM)
efficacy against infections with Enterobacter cloacae (Enterobacter cloacae [4]): alone was effective
MIC (Citrobacter sp.; read-out: Minimum inhibitory concentration): 1 mg/L (≈ 1.92 µM)
MIC (Citrobacter sp.; read-out: Minimum inhibitory concentration, Citrobacter sp., 1 strain): 125 mg/L (≈ 241 µM)
MIC (Bacteroides Fragilis): 100 mg/L (≈ 192 µM)
MICB /MICA (Staphylococcus Aureus; Lacking penicillinase, 3 strains): 1.6
MICB /MICA (Staphylococcus Aureus; Penicillinase producer, 26 strains): 1.5
MIC (Staphylococcus Aureus; Lacking penicillinase, 3 strains, B, inoculum of 10^6 organisms, geometric means): 2.5 mg/L (≈ 4.81 µM)
MIC (Staphylococcus Aureus; Penicillinase producer, 26 strains, A, Inoculum of 10^2 organisms, geometric means): 3.8 mg/L (≈ 7.31 µM)
MIC (Staphylococcus Aureus; Penicillinase producer, 26 strains, B, inoculum of 10^6 organisms, geometric means): 5.7 mg/L (≈ 11 µM)
MIC (Staphylococcus Aureus): 1.6 mg/L (≈ 3.08 µM)
effect of cell concentration on growth inhibitory activity (Staphylococcus Aureus; penicillinase-producing strains): slightly
MIC (Klebsiella pneumoniae [5]; read-out: Minimum Inhibitory Concentration, Klebsiella pneumoniae strain 1, A, Inoculum of 10^2 organisms): 0.5 mg/L (≈ 0.962 µM)
MIC (Klebsiella pneumoniae [5]; read-out: Minimum Inhibitory Concentration, Klebsiella pneumoniae strain 1, B, Inoculum of 10^6 organisms): 1 mg/L (≈ 1.92 µM)
MIC (Klebsiella pneumoniae [5]; read-out: Minimum Inhibitory Concentration, Klebsiella pneumoniae strain 2, A, Inoculum of 10^2 organisms): 0.25 mg/L (≈ 0.481 µM)
MIC (Klebsiella pneumoniae [5]; read-out: Minimum Inhibitory Concentration, Klebsiella pneumoniae strain 2, B, Inoculum of 10^6 organisms): 2 mg/L (≈ 3.85 µM)
MIC (Klebsiella pneumoniae [5]; read-out: Minimum Inhibitory Concentration, Klebsiella pneumoniae strain 3, A, Inoculum of 10^2 organisms): 0.5 mg/L (≈ 0.962 µM)
MIC (Klebsiella pneumoniae [5]; read-out: Minimum Inhibitory Concentration, Klebsiella pneumoniae strain 3, B, Inoculum of 10^6 organisms): 4 mg/L (≈ 7.7 µM)
MIC (Klebsiella pneumoniae [5]; read-out: Minimum Inhibitory Concentration, Klebsiella pneumoniae strain 4, A, Inoculum of 10^2 organisms): 0.5 mg/L (≈ 0.962 µM)
MIC (Klebsiella pneumoniae [5]; read-out: Minimum Inhibitory Concentration, Klebsiella pneumoniae strain 4, B, Inoculum of 10^6 organisms): 4 mg/L (≈ 7.7 µM)
MIC (Klebsiella pneumoniae [5]; read-out: Minimum Inhibitory Concentration, Klebsiella pneumoniae strain 5, A, Inoculum of 10^2 organisms): 0.5 mg/L (≈ 0.962 µM)
MIC (Klebsiella pneumoniae [5]; read-out: Minimum Inhibitory Concentration, Klebsiella pneumoniae strain 5, B, Inoculum of 10^6 organisms): 2 mg/L (≈ 3.85 µM)
MIC (Klebsiella pneumoniae [5]; read-out: Minimum Inhibitory Concentration, Klebsiella pneumoniae strain 6, A, Inoculum of 10^2 organisms): 0.25 mg/L (≈ 0.481 µM)
MIC (Klebsiella pneumoniae [5]; read-out: Minimum Inhibitory Concentration, Klebsiella pneumoniae strain 6, B, Inoculum of 10^6 organisms): 4 mg/L (≈ 7.7 µM)
MIC (Erwinia sp.): 0.66 mg/L (≈ 1.27 µM)
Relative Rate of Hydrolysis (benzylpenicillin = 100) [6]: < 0.5
MIC (Serratia marcescens): > 125 mg/L
MBC (Escherichia coli [7]; [10]): 0.5 mg/L (≈ 0.962 µM)
MIC (Escherichia coli [7]; [10]): 0.5 mg/L (≈ 0.962 µM)
MBC (Escherichia coli [7]; [11]): 16 mg/L (≈ 30.8 µM)
MIC (Escherichia coli [7]; [11]): 16 mg/L (≈ 30.8 µM)
MBC (Escherichia coli [7]; [12]): 0.5 mg/L (≈ 0.962 µM)
MIC (Escherichia coli [7]; [12]): 0.25 mg/L (≈ 0.481 µM)
MBC (Escherichia coli [7]; [13]): 0.5 mg/L (≈ 0.962 µM)
MIC (Escherichia coli [7]; [13]): 0.5 mg/L (≈ 0.962 µM)
MBC (Escherichia coli [7]; [14]): 1 mg/L (≈ 1.92 µM)
MIC (Escherichia coli [7]; [14]): 1 mg/L (≈ 1.92 µM)
MBC (Escherichia coli [7]; [15]): 1 mg/L (≈ 1.92 µM)
MIC (Escherichia coli [7]; [15]): 1 mg/L (≈ 1.92 µM)
MBC (Klebsiella pneumoniae [8]; [16]): 0.25 mg/L (≈ 0.481 µM)
MIC (Klebsiella pneumoniae [8]; [16]): 0.25 mg/L (≈ 0.481 µM)
MBC (Klebsiella pneumoniae [8]; [17]): 0.25 mg/L (≈ 0.481 µM)
MIC (Klebsiella pneumoniae [8]; [17]): 0.25 mg/L (≈ 0.481 µM)
MBC (Klebsiella pneumoniae [8]; [18]): 0.25 mg/L (≈ 0.481 µM)
MIC (Klebsiella pneumoniae [8]; [18]): 0.25 mg/L (≈ 0.481 µM)
MBC (Klebsiella pneumoniae [8]; [19]): 0.5 mg/L (≈ 0.962 µM)
MIC (Klebsiella pneumoniae [8]; [19]): 0.5 mg/L (≈ 0.962 µM)
MBC (Klebsiella pneumoniae [8]; [20]): 0.5 mg/L (≈ 0.962 µM)
MIC (Klebsiella pneumoniae [8]; [20]): 0.5 mg/L (≈ 0.962 µM)
MBC (Klebsiella pneumoniae [8]; [21]): 1 mg/L (≈ 1.92 µM)
MIC (Klebsiella pneumoniae [8]; [21]): 0.5 mg/L (≈ 0.962 µM)
MBC (Enterobacter cloacae [9]; [22]): 8 mg/L (≈ 15.4 µM)
MIC (Enterobacter cloacae [9]; [22]): 4 mg/L (≈ 7.7 µM)
MBC (Enterobacter cloacae [9]; [23]): 63 mg/L (≈ 121 µM)
MIC (Enterobacter cloacae [9]; [23]): 8 mg/L (≈ 15.4 µM)
MBC (Enterobacter cloacae [9]; [24]): 63 mg/L (≈ 121 µM)
MIC (Enterobacter cloacae [9]; [24]): 63 mg/L (≈ 121 µM)
